Read-outs that look alike come from different tables or passages of the source.
Legend:
HOP-92 = assay: panel of 60 human tumor cell lines, growth inhibition (Non-Small Cell Lung Cancer); conditions: HOP-92
SK-MEL-2 = assay: panel of 60 human tumor cell lines, growth inhibition (Melanoma); conditions: SK-MEL-2
NCI/ADR-RES = assay: panel of 60 human tumor cell lines, growth inhibition (Ovarian Cancer)
IGROV1 = assay: as above; conditions: IGROVI
CAKI-1 = assay: panel of 60 human tumor cell lines, growth inhibition (Renal Cancer); conditions: CAKI-1
SF-539 = assay: panel of 60 human tumor cell lines, growth inhibition (CNS Cancer); conditions: SF-539
KM12 = assay: panel of 60 human tumor cell lines, growth inhibition (Colon Cancer); conditions: KM12
A498 = assay: panel of 60 human tumor cell lines, growth inhibition (Renal Cancer); conditions: A498
COLO 205 = assay: panel of 60 human tumor cell lines, growth inhibition (Colon Cancer); conditions: COLO 205
PC-3 = assay: panel of 60 human tumor cell lines, growth inhibition (Prostate Cancer); conditions: PC-3
DU-145 = assay: as above; conditions: DU-145
MOLT-4 = assay: panel of 60 human tumor cell lines, growth inhibition (Leukemia); conditions: MOLT-4
MDA-MB-468 = assay: panel of 60 human tumor cell lines, growth inhibition (Breast Cancer); conditions: MDA-MB-468
NCI-H23 = assay: panel of 60 human tumor cell lines, growth inhibition (Non-Small Cell Lung Cancer); conditions: NCI-H23
SNB-19 = assay: panel of 60 human tumor cell lines, growth inhibition (CNS Cancer); conditions: SNB-19
RXF 393 = assay: panel of 60 human tumor cell lines, growth inhibition (Renal Cancer); conditions: RXF 393
SK-MEL-28 = assay: panel of 60 human tumor cell lines, growth inhibition (Melanoma); conditions: SK-MEL-28
UACC-62 = assay: as above; conditions: UACC-62

SMILES: C=C1C(=O)O[C@H]2[C@H]1CC/C(COC(=O)NCCN1CCCCC1)=C\CC[C@@]1(C)O[C@@H]21 [JVM 2-13]
- GI50 (HOP-92): 1.58 µM
- TGI (HOP-92): 11.2 µM
- Percent Growth (HOP-92; Log10 Concentration −4.0): −83%
- Percent Growth (HOP-92; Log10 Concentration −5.0): 4%
- Percent Growth (HOP-92; Log10 Concentration −6.0): 61%
- Percent Growth (HOP-92; Log10 Concentration −7.0): 76%
- Percent Growth (HOP-92; Log10 Concentration −8.0): 82%
- GI50 (SK-MEL-2): 17 µM
- TGI (SK-MEL-2): 34.4 µM
- Percent Growth (SK-MEL-2; Log10 Concentration −4.0): −76%
- Percent Growth (SK-MEL-2; Log10 Concentration −5.0): 88%
- Percent Growth (SK-MEL-2; Log10 Concentration −6.0): 113%
- Percent Growth (SK-MEL-2; Log10 Concentration −7.0): 113%
- Percent Growth (SK-MEL-2; Log10 Concentration −8.0): 103%
- GI50 (NCI/ADR-RES): 31.2 µM
- TGI (NCI/ADR-RES): >100 µM
- Percent Growth (NCI/ADR-RES; Log10 Concentration −4.0): 4%
- Percent Growth (NCI/ADR-RES; Log10 Concentration −5.0): 95%
- Percent Growth (NCI/ADR-RES; Log10 Concentration −6.0): 103%
- Percent Growth (NCI/ADR-RES; Log10 Concentration −7.0): 107%
- Percent Growth (NCI/ADR-RES; Log10 Concentration −8.0): 103%
- GI50 (IGROV1): 5.59 µM
- TGI (IGROV1): 22.9 µM
- Percent Growth (IGROV1; Log10 Concentration −4.0): −58%
- Percent Growth (IGROV1; Log10 Concentration −5.0): 33%
- Percent Growth (IGROV1; Log10 Concentration −6.0): 101%
- Percent Growth (IGROV1; Log10 Concentration −7.0): 106%
- Percent Growth (IGROV1; Log10 Concentration −8.0): 105%
- GI50 (CAKI-1): 3.43 µM
- TGI (CAKI-1): 15.7 µM
- Percent Growth (CAKI-1; Log10 Concentration −4.0): −98%
- Percent Growth (CAKI-1; Log10 Concentration −5.0): 24%
- Percent Growth (CAKI-1; Log10 Concentration −6.0): 80%
- Percent Growth (CAKI-1; Log10 Concentration −7.0): 92%
- Percent Growth (CAKI-1; Log10 Concentration −8.0): 89%
- GI50 (SF-539): 3.23 µM
- TGI (SF-539): 13.1 µM
- Percent Growth (SF-539; Log10 Concentration −4.0): −78%
- Percent Growth (SF-539; Log10 Concentration −5.0): 10%
- Percent Growth (SF-539; Log10 Concentration −6.0): 91%
- Percent Growth (SF-539; Log10 Concentration −7.0): 91%
- Percent Growth (SF-539; Log10 Concentration −8.0): 92%
- GI50 (HL-60(TB)): 3.5 µM
- TGI (HL-60(TB)): 11.3 µM
- Percent Growth (HL-60(TB); Log10 Concentration −4.0): −44%
- Percent Growth (HL-60(TB); Log10 Concentration −5.0): 2%
- Percent Growth (HL-60(TB); Log10 Concentration −6.0): 107%
- Percent Growth (HL-60(TB); Log10 Concentration −7.0): 106%
- Percent Growth (HL-60(TB); Log10 Concentration −8.0): 90%
- CC50 (HL-60(TB); read-out: LC50): > 100 µM
- GI50 (KM12): 14.4 µM
- TGI (KM12): 29.8 µM
- Percent Growth (KM12; Log10 Concentration −4.0): −83%
- Percent Growth (KM12; Log10 Concentration −5.0): 75%
- Percent Growth (KM12; Log10 Concentration −6.0): 101%
- Percent Growth (KM12; Log10 Concentration −7.0): 106%
- Percent Growth (KM12; Log10 Concentration −8.0): 106%
- GI50 (A498): 11.8 µM
- TGI (A498): 25 µM
- Percent Growth (A498; Log10 Concentration −4.0): −92%
- Percent Growth (A498; Log10 Concentration −5.0): 61%
- Percent Growth (A498; Log10 Concentration −6.0): 71%
- Percent Growth (A498; Log10 Concentration −7.0): 65%
- Percent Growth (A498; Log10 Concentration −8.0): 73%
- GI50 (COLO 205): 1.79 µM
- TGI (COLO 205): 1.73 µM
- Percent Growth (COLO 205; Log10 Concentration −4.0): −75%
- Percent Growth (COLO 205; Log10 Concentration −5.0): −67%
- Percent Growth (COLO 205; Log10 Concentration −6.0): 90%
- Percent Growth (COLO 205; Log10 Concentration −7.0): 101%
- Percent Growth (COLO 205; Log10 Concentration −8.0): 92%
- GI50 (PC-3): 15.7 µM
- TGI (PC-3): 33.3 µM
- Percent Growth (PC-3; Log10 Concentration −4.0): −73%
- Percent Growth (PC-3; Log10 Concentration −5.0): 80%
- Percent Growth (PC-3; Log10 Concentration −6.0): 94%
- Percent Growth (PC-3; Log10 Concentration −7.0): 96%
- Percent Growth (PC-3; Log10 Concentration −8.0): 97%
- GI50 (DU-145): 4.89 µM
- TGI (DU-145): 16.6 µM
- Percent Growth (DU-145; Log10 Concentration −4.0): −97%
- Percent Growth (DU-145; Log10 Concentration −5.0): 27%
- Percent Growth (DU-145; Log10 Concentration −6.0): 101%
- Percent Growth (DU-145; Log10 Concentration −7.0): 108%
- Percent Growth (DU-145; Log10 Concentration −8.0): 110%
- TGI (MOLT-4): 13.3 µM
- Percent Growth (MOLT-4; Log10 Concentration −4.0): −49%
- Percent Growth (MOLT-4; Log10 Concentration −5.0): 7%
- Percent Growth (MOLT-4; Log10 Concentration −6.0): 95%
- Percent Growth (MOLT-4; Log10 Concentration −7.0): 116%
- Percent Growth (MOLT-4; Log10 Concentration −8.0): 100%
- GI50 (MDA-MB-468): 1.41 µM
- TGI (MDA-MB-468): 4.47 µM
- Percent Growth (MDA-MB-468; Log10 Concentration −4.0): −68%
- Percent Growth (MDA-MB-468; Log10 Concentration −5.0): −35%
- Percent Growth (MDA-MB-468; Log10 Concentration −6.0): 65%
- Percent Growth (MDA-MB-468; Log10 Concentration −7.0): 95%
- Percent Growth (MDA-MB-468; Log10 Concentration −8.0): 99%
- GI50 (NCI-H23): 11.3 µM
- TGI (NCI-H23): 27.2 µM
- Percent Growth (NCI-H23; Log10 Concentration −4.0): −74%
- Percent Growth (NCI-H23; Log10 Concentration −5.0): 57%
- Percent Growth (NCI-H23; Log10 Concentration −6.0): 104%
- Percent Growth (NCI-H23; Log10 Concentration −7.0): 100%
- Percent Growth (NCI-H23; Log10 Concentration −8.0): 98%
- GI50 (SNB-19): 16.8 µM
- TGI (SNB-19): 15.1 µM
- Percent Growth (SNB-19; Log10 Concentration −4.0): −71%
- Percent Growth (SNB-19; Log10 Concentration −5.0): 85%
- Percent Growth (SNB-19; Log10 Concentration −6.0): 96%
- Percent Growth (SNB-19; Log10 Concentration −7.0): 97%
- Percent Growth (SNB-19; Log10 Concentration −8.0): 98%
- GI50 (RXF 393): 2.11 µM
- TGI (RXF 393): 8.93 µM
- Percent Growth (RXF 393; Log10 Concentration −4.0): −84%
- Percent Growth (RXF 393; Log10 Concentration −5.0): −4%
- Percent Growth (RXF 393; Log10 Concentration −6.0): 76%
- Percent Growth (RXF 393; Log10 Concentration −7.0): 86%
- Percent Growth (RXF 393; Log10 Concentration −8.0): 98%
- GI50 (SK-MEL-28): 3.35 µM
- TGI (SK-MEL-28): 14 µM
- Percent Growth (SK-MEL-28; Log10 Concentration −4.0): −81%
- Percent Growth (SK-MEL-28; Log10 Concentration −5.0): 14%
- Percent Growth (SK-MEL-28; Log10 Concentration −6.0): 90%
- Percent Growth (SK-MEL-28; Log10 Concentration −7.0): 100%
- Percent Growth (SK-MEL-28; Log10 Concentration −8.0): 98%
- GI50 (UACC-62): 4.86 µM
- TGI (UACC-62): 18.9 µM
- Percent Growth (UACC-62; Log10 Concentration −4.0): −85%
- Percent Growth (UACC-62; Log10 Concentration −5.0): 33%
- Percent Growth (UACC-62; Log10 Concentration −6.0): 88%
- Percent Growth (UACC-62; Log10 Concentration −7.0): 95%
- Percent Growth (UACC-62; Log10 Concentration −8.0): 95%

Source: patent US9469650B2, “Melampomagnolide B derivatives” (BOARD OF TRUSTEES OF THE UNIVERSITY OF ARKANSAS, priority 2013, dated 2016)
